ChEMBL document CHEMBL4665919, “Novel Tricyclic Pyroglutamide Derivatives as Potent RORγt Inverse Agonists Identified using a Virtual Screening Approach” (ACS Med Chem Lett, 2020)

Columns and labels:
[1] = Permeability across basolateral to apical side in human Caco2 cells; type: ADME, cell-based; conditions: Caco-2, read-out: permeability
[2] = Drug concentration in BALB/c mouse at 4 mg/kg, po measured upto 24 hrs; type: ADME, organism-based; conditions: in vivo, read-out: Drug uptake
[3] = AUC in BALB/c mouse at 4 mg/kg, po measured upto 72 hrs; type: ADME, organism-based; set-up: route oral, dose 4 mg/kg, time <=72; conditions: in vivo
[4] = Oral bioavailability in BALB/c mouse at 4 mg/kg; type: ADME, organism-based; conditions: in vivo
Cytochrome P450 3A4 = Cytochrome P450 3A4 (Homo sapiens, UniProt P08684); assay: Inhibition of CYP3A4 (unknown origin); type: ADME
Sequence of Cytochrome P450 3A4 (P08684 whole entry): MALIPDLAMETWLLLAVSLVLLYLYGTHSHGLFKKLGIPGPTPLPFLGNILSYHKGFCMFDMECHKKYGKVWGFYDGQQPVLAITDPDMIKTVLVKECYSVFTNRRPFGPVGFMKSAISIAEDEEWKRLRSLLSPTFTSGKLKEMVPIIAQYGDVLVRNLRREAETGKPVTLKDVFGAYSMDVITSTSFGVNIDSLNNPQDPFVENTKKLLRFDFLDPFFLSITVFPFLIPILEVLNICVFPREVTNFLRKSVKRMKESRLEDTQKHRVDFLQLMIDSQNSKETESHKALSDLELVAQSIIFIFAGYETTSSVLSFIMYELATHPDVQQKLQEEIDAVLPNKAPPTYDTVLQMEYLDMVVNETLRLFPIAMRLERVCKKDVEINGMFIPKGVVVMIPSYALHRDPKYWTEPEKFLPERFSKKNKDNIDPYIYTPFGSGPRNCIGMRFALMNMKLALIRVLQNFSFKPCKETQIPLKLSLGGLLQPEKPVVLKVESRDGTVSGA

[5] = Protein binding in mouse; type: ADME, organism-based; conditions: in vivo
[6] = AUC in BALB/c mouse at 2 mg/kg, iv; type: ADME, organism-based; set-up: dose 2 mg/kg; conditions: in vivo
[7] = Half life in rat liver microsomes; type: ADME, Microsome
Cytochrome P450 2C8 = target: T1, Cytochrome P450 2C8 (Homo sapiens, UniProt P10632); assay: Inhibition of CYP2C8 (unknown origin); type: ADME
T1 sequence (P10632 whole entry): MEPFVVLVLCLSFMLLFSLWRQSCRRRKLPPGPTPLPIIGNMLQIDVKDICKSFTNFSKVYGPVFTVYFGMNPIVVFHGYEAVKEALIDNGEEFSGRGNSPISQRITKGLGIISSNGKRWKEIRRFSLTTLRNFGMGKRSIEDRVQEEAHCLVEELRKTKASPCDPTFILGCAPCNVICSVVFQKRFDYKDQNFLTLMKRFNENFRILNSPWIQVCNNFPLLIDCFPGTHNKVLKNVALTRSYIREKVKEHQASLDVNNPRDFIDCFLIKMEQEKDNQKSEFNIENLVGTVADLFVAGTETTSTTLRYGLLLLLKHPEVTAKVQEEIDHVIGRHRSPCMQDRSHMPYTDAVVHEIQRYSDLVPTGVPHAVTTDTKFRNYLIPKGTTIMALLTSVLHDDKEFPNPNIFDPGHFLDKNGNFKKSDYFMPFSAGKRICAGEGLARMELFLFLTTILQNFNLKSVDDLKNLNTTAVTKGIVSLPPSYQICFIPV

HepG2 = assay: Cytotoxicity against human HepG2 cells assessed as reduction in cell viability
[8] = Clearance in BALB/c mouse at 2 mg/kg, iv; type: ADME, organism-based; conditions: in vivo
[9] = target: T2, Oxysterols receptor LXR-beta (Homo sapiens, UniProt P55055); assay: Inverse agonist activity at LXRbeta (unknown origin)
T2 sequence (P55055 whole entry): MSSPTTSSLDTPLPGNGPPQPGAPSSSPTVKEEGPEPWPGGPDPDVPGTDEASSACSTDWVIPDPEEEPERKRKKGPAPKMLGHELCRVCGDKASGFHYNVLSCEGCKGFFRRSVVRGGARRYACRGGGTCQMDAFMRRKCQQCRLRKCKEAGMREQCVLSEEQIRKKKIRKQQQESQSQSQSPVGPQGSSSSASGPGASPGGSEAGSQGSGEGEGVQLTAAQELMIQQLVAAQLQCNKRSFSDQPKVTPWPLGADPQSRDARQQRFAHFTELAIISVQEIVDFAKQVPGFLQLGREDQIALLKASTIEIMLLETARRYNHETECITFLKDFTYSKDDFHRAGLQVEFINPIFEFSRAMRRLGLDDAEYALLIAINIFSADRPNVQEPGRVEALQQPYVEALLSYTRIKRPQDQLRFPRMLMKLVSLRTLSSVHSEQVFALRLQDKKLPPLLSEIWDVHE

Cytochrome P450 2C9 = Cytochrome P450 2C9 (Homo sapiens, UniProt P11712); assay: Inhibition of CYP2C9 (unknown origin); type: ADME
Sequence of Cytochrome P450 2C9 (P11712 whole entry): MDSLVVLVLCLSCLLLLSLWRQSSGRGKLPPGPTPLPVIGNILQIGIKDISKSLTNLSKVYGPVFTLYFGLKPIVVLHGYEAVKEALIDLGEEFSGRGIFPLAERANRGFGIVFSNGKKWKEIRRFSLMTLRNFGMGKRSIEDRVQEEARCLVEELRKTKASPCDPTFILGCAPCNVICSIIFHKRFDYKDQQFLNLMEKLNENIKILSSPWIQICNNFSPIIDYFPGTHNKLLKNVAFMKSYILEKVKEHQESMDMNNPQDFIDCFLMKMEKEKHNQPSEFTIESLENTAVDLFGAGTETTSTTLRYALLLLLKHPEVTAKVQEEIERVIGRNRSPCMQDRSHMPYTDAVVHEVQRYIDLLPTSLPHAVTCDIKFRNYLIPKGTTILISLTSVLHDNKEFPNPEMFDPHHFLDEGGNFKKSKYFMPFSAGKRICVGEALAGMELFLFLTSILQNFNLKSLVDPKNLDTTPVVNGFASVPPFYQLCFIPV

[10] = target: T3, Nuclear receptor subfamily 1 group I member 2 (Homo sapiens, UniProt O75469); assay: Inverse agonist activity at PXR (unknown origin)
T3 sequence (O75469 whole entry): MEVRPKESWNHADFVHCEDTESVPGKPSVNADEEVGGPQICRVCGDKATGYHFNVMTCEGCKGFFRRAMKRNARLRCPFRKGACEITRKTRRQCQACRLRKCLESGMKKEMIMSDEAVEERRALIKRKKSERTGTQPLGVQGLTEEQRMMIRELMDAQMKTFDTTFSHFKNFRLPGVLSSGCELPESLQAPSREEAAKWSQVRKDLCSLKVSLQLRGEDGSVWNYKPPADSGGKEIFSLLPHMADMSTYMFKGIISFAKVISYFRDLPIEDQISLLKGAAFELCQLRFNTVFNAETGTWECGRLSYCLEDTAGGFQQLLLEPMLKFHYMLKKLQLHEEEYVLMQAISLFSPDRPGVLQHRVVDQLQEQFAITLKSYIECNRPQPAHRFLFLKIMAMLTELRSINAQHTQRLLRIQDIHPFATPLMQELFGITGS

[11] = Volume of distribution at steady state in BALB/c mouse at 2 mg/kg, iv; type: ADME, organism-based; conditions: in vivo, read-out: Vdss
[12] = Cmax in BALB/c mouse at 4 mg/kg, po; type: ADME, organism-based; set-up: route oral, dose 4 mg/kg; conditions: in vivo
[13] = Kinetic solubility of compound in acetate buffer at pH 6.5; type: physicochemical; conditions: read-out: Kinetic_solubility
[14] = target: T4, Nuclear receptor ROR-alpha (Homo sapiens, UniProt P35398); assay: Inverse agonist activity at Gal4-fused RORalpha (unknown origin)
T4 sequence (P35398 whole entry): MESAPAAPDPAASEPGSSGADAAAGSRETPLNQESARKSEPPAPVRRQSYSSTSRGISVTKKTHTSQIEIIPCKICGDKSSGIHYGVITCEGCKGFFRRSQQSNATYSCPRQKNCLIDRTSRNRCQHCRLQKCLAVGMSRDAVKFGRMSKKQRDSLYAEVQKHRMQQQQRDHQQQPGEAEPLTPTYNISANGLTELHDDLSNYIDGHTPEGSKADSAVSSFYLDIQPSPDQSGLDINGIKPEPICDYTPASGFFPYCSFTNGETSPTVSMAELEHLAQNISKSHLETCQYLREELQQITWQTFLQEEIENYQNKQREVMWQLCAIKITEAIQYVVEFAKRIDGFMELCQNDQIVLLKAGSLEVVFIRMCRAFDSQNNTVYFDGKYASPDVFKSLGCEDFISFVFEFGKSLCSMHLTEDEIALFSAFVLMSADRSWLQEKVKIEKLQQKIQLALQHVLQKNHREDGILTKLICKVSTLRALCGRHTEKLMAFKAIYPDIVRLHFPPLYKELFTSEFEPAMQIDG

[15] = Half life in BALB/c mouse at 2 mg/kg, iv; type: ADME, organism-based; conditions: in vivo
Cytochrome P450 2D6 = Cytochrome P450 2D6 (Homo sapiens, UniProt P10635); assay: Inhibition of CYP2D6 (unknown origin); type: ADME
Sequence of Cytochrome P450 2D6 (P10635 whole entry): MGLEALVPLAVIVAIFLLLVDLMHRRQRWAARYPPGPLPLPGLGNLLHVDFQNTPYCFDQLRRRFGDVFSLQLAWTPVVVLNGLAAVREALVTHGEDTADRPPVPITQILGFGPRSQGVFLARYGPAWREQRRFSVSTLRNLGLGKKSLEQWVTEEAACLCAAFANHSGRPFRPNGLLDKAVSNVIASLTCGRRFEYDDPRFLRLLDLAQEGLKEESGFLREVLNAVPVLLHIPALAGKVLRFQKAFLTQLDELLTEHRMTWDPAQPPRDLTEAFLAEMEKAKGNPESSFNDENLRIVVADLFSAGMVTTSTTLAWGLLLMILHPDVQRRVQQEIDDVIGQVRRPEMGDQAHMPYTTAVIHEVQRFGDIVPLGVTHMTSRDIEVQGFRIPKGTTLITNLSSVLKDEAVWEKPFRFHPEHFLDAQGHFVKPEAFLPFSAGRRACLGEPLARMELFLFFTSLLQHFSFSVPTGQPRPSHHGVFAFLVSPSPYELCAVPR

[16] = Half life in human liver microsomes; type: ADME, Microsome

Papp B→A [1]: 19 ×10⁻⁶ cm/s
concentration at 24 h [2]: 620 nM
AUC at 72 h [3]: 43.9 µM·h
bioavailability [4]: 94%
IC50 (Cytochrome P450 3A4): > 20 µM
fraction unbound [5]: 1.3%
AUC [6]: 23.7 µM·h
half-life [7]: > 2 h
IC50 (Cytochrome P450 2C8): > 20 µM
clearance [8]: 2 mL/min/kg
EC50 [9]: > 7.5 µM
IC50 (Cytochrome P450 2C9): 4.9 µM
EC50 [10]: > 50 µM
Vd [11]: 2.7 L/kg
Cmax [12]: 2200 nM
solubility kinetic [13]: < 1 µg/mL
EC50 [14]: > 10 µM
half-life [15]: 15 h
IC50 (Cytochrome P450 2D6): > 20 µM
half-life [16]: > 2 h
Structure (SMILES): CC(C)(O)CN1C(=O)[C@H](F)C[C@H]1C(=O)N1CC[C@@]2(S(=O)(=O)c3ccc(F)cc3)c3ccc(C(F)(C(F)(F)F)C(F)(F)F)cc3CC[C@@H]12
EC50 (HepG2): > 100 µM
